From a melting point compilation (Tetko et al.; mined from patent text by program, amines drawn as free bases though some values may be those of a salt)

Point of comparison: `C[C@@H]1C(=O)C[C@H]2C[C@@H]1OO[C@@]2(C)/C=C\c1ccc(C#N)cc1`, melting point 125 °C. Against it:
- COc1ccc(Nc2nc(Cl)nc(NCCO)n2)cc1 — higher, 169 to 173 °C
- Sc1nc2ncccc2[nH]1 — higher, > 250 °C
- CNC(=O)N(C)c1nc(CC(=O)Nc2nnc(C(C)(C)C)s2)cs1 — higher, 175 to 177 °C
- Nc1cc(F)ccc1Nc1ccccc1 — lower, 83 to 84 °C
- O=C(Nc1cccc2[nH]ccc12)c1ccc(Cl)cc1OCC1CO1 (stereo not given) — higher, 194 °C
- COC(=O)CCNc1cccc(CNC(=O)C2Cc3ccccc3N2S(=O)(=O)c2ccc(-c3cccc(C(F)(F)F)c3)cc2)c1 (stereo not given) — lower, 57 °C
- Cc1ccc(C)c(-c2c(C)ccc(C)c2O)c1O — lower, 110 to 113 °C
- COc1ccc2cc(-c3ccc(O)cc3)[nH]c(=O)c2c1 — higher, 255 °C
- CCN(CC)C(=O)n1nc(C(C)(C)C)cc1SC — lower, 55 to 56 °C
- Cc1cccc(Nc2ccccc2C(=O)OCC(=O)N(C)C)c1C — lower, 85 to 86 °C
- Clc1ccc2c(c1)C(c1ccccc1)=NCc1nnc(-c3ccccc3)n1-2 — higher, 194 °C
- CC(=O)OC1CSC(Oc2c(C)ccnc2-c2cccnc2)C(OC(C)=O)C1OC(C)=O (stereo not given) — higher, 143 °C
- NCc1cccc(CNC(N)=O)c1 — higher, 127 to 129 °C
- Clc1ccc2nc(NCc3ccco3)nc(-c3ccccc3)c2c1 — higher, 142 °C
- O=CNc1cnc2ccccc2c1Cl — higher, 175 to 177 °C
- COCON=C(C(C)=O)C(=O)OC — lower, 115 to 120 °C
- Cc1c(-c2ncc(Cl)cc2F)nn(C)c1C(=O)O — higher, 194 to 196 °C
- Cc1ccc2occ(-c3ccccc3)c2c1 — lower, 99 to 108 °C
- O=C(Nc1ccc(-n2nc(C(F)(F)F)cc2C(F)(F)F)cc1)c1ccc(Br)cc1 — higher, 205 to 207 °C
- O=C(O)CCCNC(=O)CC1=C(n2nc(-c3c(-c4ccccc4)nn4ccccc34)ccc2=O)CCCC1 — lower, 92.5 to 93 °C
- Cn1ccnc1Sc1ccc([N+](=O)[O-])cc1F — lower, 97 to 99 °C
- O=C(Nc1ccc(-n2nc(C(F)(F)F)cc2C(F)(F)F)cc1)c1cc(F)c(Cl)cc1F — higher, 160 to 162 °C
- O=C(O)Cc1ccc(Cl)cc1OCCc1ccccc1 — lower, 102 to 104 °C
- CS(=O)(=O)c1ccc(-c2nc(C(F)(F)F)nc(N=[N+]=[N-])c2-c2ccccc2)cc1 — higher, 172 to 175 °C
- CCc1cc(NCc2ccc(-c3ccccc3C#N)cc2)n2ncc(Cl)c2n1 — higher, 152 to 154 °C
- NC(C(=O)O)c1ccc(CC(=O)O)cc1 (stereo not given) — higher, 250 °C
- Nc1sc2c(c1C(=O)c1cccc3ccccc13)CCCC2 — higher, 137 to 140 °C
- CN1C(=O)C(C(=O)Nc2ccccc2)Sc2ccccc21 (stereo not given) — not separable, 124 to 126 °C
- CC(C)(O)c1ccc(CNC(=O)c2cccnc2Oc2cccc(F)c2)cc1 — lower, 106 to 108 °C
- CC(C)CC12CCC3C4CCC(=O)C=C4CCC3C1CCC2O (stereo not given) — not separable, 124 to 126 °C
- O=c1ccc2c(O)cc(O)cc2[nH]1 — higher, > 300 °C
- CCc1c(N)c(C(N)=O)nn1C[C@H]1CCCN1C — higher, 130 to 133 °C
- CCc1nc2c(N)nc3ccc(O)cc3c2n1CCCCNS(C)(=O)=O — higher, 128 to 130 °C
- O=C1CCCN(C(=O)Cc2ccccc2)C(=O)CCc2cc(Cl)ccc21 — higher, 178 to 180 °C
- c1ccc(Nc2ncc3cc4ccccc4n3n2)cc1 — higher, 188 to 193 °C
- Cc1nn(C)c2c1N=C(C(C)C)N1CC(C)N=C21 (stereo not given) — lower, 96 to 97 °C
- Fc1ccccc1N1CC2(CCNCC2)c2ccc(Cl)cc21 — higher, 174 to 176 °C
- COc1ccc(N2CCOCC2)c2sc(-c3ncc(-c4csc5ccccc45)[nH]3)nc12 — higher, 161 to 162 °C
- Cc1nc2ccccn2c(=O)c1CCN1CCC(Nc2nc3cncnc3n2Cc2cnccn2)CC1 — higher, 180 °C
- CNC(=N[N+](=O)[O-])NCc1ccc(Cl)nc1 — higher, 150 to 152 °C
- COc1cc2ccsc2c(Cl)c1Cl — lower, 103 to 104 °C
- COCCNC(=O)c1ccc(C(=O)C=C(c2cc(Cl)cc(Cl)c2)C(F)(F)F)cc1 — higher, 150 to 153 °C
- CC(C)(C)C(OC(=O)Cl)=C(Oc1ccc(Cl)cc1)n1cncn1 — higher, 159 to 161 °C
- CCOC(=O)C(C#N)c1cn(C(=O)OCC)c2ccc(OC)cc12 (stereo not given) — lower, 81 to 83 °C
- O=C(CCCCCCNC(=O)C(=O)c1cn2c3c(cccc13)CCC2)NO — higher, 158 to 159 °C
- CCCNCC1Cc2ccc(C3=NNC(=O)CC3)cc2C1 (stereo not given) — lower, 82 to 84 °C
- CN1CCC(C2(C(N)=O)Cc3ccc([N+](=O)[O-])cc3C2=O)CC1 (stereo not given) — higher, 189 to 190 °C
- CN1CC(CN)c2c[nH]c3cccc(c23)C1=O (stereo not given) — lower, 85 to 87 °C
- Cc1ccc(S(=O)(=O)N(CCCl)N(S(C)(=O)=O)S(C)(=O)=O)cc1 — lower, 99 to 101 °C
- CC1Oc2ccccc2CC1NNc1ncnc2c1ncn2C1OC(CO)C(O)C1O (stereo not given) — lower, 90 to 92 °C
- CC(=O)N1CCC(C(=O)c2ccc(Br)cc2)CC1 — lower, 120 °C
- O=C(NC(=O)C(c1ccccc1)c1ccccc1)OCc1ccccc1 — lower, 100 to 101 °C
- CC(C)(C)OC(=O)NCC[C@H]1CC[C@H](COS(C)(=O)=O)CC1 — lower, 83 to 84 °C
- O=C(O)/C=C/C=C(c1cccc(Cl)c1)c1cccc(Cl)c1 — higher, 142 to 145 °C
- Cc1cnc(CCCCCNc2ncc(Cc3ccc(C)nc3)c(=O)[nH]2)c(N)c1 — higher, 161 to 163 °C
- CC1CCCc2cc([N+](=O)[O-])cnc21 (stereo not given) — lower, 61 to 63 °C
- O=C(NCCO)c1cc(-c2cccc3nn(Cc4cccc(C(F)(F)F)c4)cc23)ccn1 — higher, 131 to 132 °C
- COC(=O)C(CC(C)C)NC(=O)C(CC(C)C)NC(=O)OCc1ccccc1 (stereo not given) — lower, 80 to 82 °C
- Cc1ccc(NC(=S)Nc2ncccc2OCc2c(F)cccc2Cl)cc1 — higher, 138 to 140 °C
- CCCCCC(=O)Nc1ccc2scc(Cc3ccc(C(=O)O)cc3OC)c2c1 — higher, 234 to 235 °C
- CCN(CC)C(=O)c1ccn2nc(-c3ccccc3)c(-c3ccc(=O)n(C(C)C)n3)c2c1 — higher, 157 to 158 °C
- COc1nscc1C#N — lower, 60 to 62 °C
- O=C1c2cccc(Sc3ccccc3)c2C(=O)c2cccc(Nc3ccc([N+](=O)[O-])cc3)c21 — higher, 242 to 244 °C
- Cc1nc(-c2cc3cccc(NS(=O)(=O)c4cccs4)c3[nH]2)sc1C — higher, 210 to 211 °C
- Nc1c(Cl)cc2nc(O)c(O)nc2c1N — higher, > 300 °C
- COc1ccc(C(=O)Nc2ccncc2)c2c1oc1ccc(NC(C)=O)cc12 — higher, 267 to 268 °C
- CCOC(=O)C(N=C(c1ccc(Cl)cc1)c1ccc(OC)cc1O)C(=O)OCC — lower, 73 to 75 °C
- CNC(=O)C1Cc2c(n(C)c3ccc(OCc4ccccc4)cc23)C1 (stereo not given) — higher, 176 to 177 °C
- COC(=O)c1ccc(Oc2c(C)n(CC(=O)O)c3ccc(F)cc23)cc1 — higher, 195 to 196 °C
- c1ccc2c(c1)C[C@H]1CSC(=Nc3cccc4ncccc34)N1C2 — higher, 194 °C
- N#CC(=O)c1ccccc1CCl — lower, 54.5 to 56.5 °C
- O=C(O)COc1ccc(/C=C/C(=O)C(F)(F)F)cc1 — higher, 156 °C
- COC(=O)c1cc2ccc(Sc3ccc(C)cc3)nc2s1 — higher, 127 to 130 °C
- NC(=O)CCC1OC(=O)NC1c1cc(F)c(-n2nnc(Cc3cccs3)n2)c(F)c1 (stereo not given) — higher, 142 to 144 °C
